Results as given in patent US20220402935A1, “HETEROCYCLIC COMPOUND” (FIMECS, INC., priority 2019, published 2022).

What follows are molecules tested against T1, IRAK-M (Homo sapiens, UniProt Q9Y616) (assay: IRAK-M binding inhibitory activity (KINOMEscan active site-dependent competitive assay)). Settings: concentration of the test compound 1 μM; first symbol of cell; read-out: IRAK-M binding inhibition activity % Ctrl.
T1 sequence (Q9Y616 1-596): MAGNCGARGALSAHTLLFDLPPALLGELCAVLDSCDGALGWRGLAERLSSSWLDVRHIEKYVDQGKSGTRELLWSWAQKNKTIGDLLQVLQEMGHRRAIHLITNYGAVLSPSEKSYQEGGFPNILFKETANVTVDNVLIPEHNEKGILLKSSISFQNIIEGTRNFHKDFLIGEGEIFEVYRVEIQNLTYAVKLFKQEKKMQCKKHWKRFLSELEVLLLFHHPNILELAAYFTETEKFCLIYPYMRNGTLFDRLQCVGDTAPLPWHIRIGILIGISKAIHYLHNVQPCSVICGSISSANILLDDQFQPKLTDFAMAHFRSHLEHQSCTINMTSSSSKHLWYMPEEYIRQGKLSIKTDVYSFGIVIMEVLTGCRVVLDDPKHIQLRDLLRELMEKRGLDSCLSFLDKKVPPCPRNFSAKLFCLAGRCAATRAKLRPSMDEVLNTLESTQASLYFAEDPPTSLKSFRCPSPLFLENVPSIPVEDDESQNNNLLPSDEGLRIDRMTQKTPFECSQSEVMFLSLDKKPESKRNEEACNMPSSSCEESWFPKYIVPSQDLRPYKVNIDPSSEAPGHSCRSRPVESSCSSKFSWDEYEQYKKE
Design: purchased Eurofins Discover X
Protocol: IRAK-M binding inhibitory activity was evaluated using active site-dependent competitive assay KINOMEscan® provided by Eurofins Discover X (Goldstein, D. M. et al. High-throughput kinase profiling as a platform for drug discovery. Nat. Rev. Drug Discovery. 7, 391-397 (2008)). IRAK-M binding inhibitory activity of the test compound was evaluated. […] The “% Ctrl” is calculated by the following formula.
(test compound signal−positive control compound signal)/(negative control compound signal−positive control compound signal)×100
Negative control compound=DMSO (100 Ctrl)
Positive control compound=control compound (0%×Ctrl)

`COc1ccc(Nc2nc(C)nc3cc(C)sc23)cc1OC` [Ref. example 66, N-(3,4-dimethoxyphenyl)-2,6-dimethylthieno[3,2-d]pyrimidin-4-amine] and `NC(=O)c1ccc(Nc2nc(Cl)nc3ccsc23)cc1` [Ref. example 33, 4-((2-chlorothieno[3,2-d]pyrimidin-4-yl)amino)benzamide] cannot be ordered by remaining binding at 1 µM: 50 to 75% for the first, ≥ 75% for the second.

`c1ccc(-c2cc3ncnc(NCc4cccnc4)c3s2)cc1` [Ref. example 16, 6-phenyl-N-(pyridin-3-ylmethyl)thieno[3,2-d]pyrimidin-4-amine] and `c1ccc(Nc2ncnc3cc(-c4ccccc4)sc23)cc1` [Ref. example 12, N,6-diphenylthieno[3,2-d]pyrimidin-4-amine] cannot be ordered by remaining binding at 1 µM: 50 to 75% for the first, ≥ 75% for the second.

`CCOC(=O)CCS(=O)(=O)N1CCC(Oc2ncnc3ccsc23)CC1` [Ref. example 43, ethyl 3-((4-(thieno[3,2-d]pyrimidin-4-yloxy)piperidin-1-yl)sulfonyl)propanoate] and `CS(=O)(=O)N1CCC(Oc2ncnc3ccsc23)CC1` [Ref. example 39, 4-((1-(methylsulfonyl)piperidin-4-yl)oxy)thieno[3,2-d]pyrimidine] fall in the same range of remaining binding at 1 µM: 50 to 75% for the first, 50 to 75% for the second.

Compared with `O=S(=O)(c1ccc(Cl)cc1)N1CCC(Oc2ncnc3ccsc23)CC1` [Ref. example 52, 4-((1-((4-chlorophenyl)sulfonyl)piperidin-4-yl)oxy)thieno[3,2-d]pyrimidine], `O=S(=O)(c1cccc(F)c1)N1CCC(Oc2ncnc3ccsc23)CC1` [Ref. example 56, 4-((1-((3-fluorophenyl)sulfonyl)piperidin-4-yl)oxy)thieno[3,2-d]pyrimidine] is higher in remaining binding at 1 µM: < 25% for the first, 25 to 50% for the second.

`Cc1ccc(NS(=O)(=O)c2ccc(CNC(=O)COCCOCCOCCOc3cc(CN4CCC(Oc5ccnc6ccsc56)CC4)on3)cc2)c2[nH]cc(C#N)c12` [Example 69, N-(4-(N-(3-cyano-4-methyl-1H-indol-7-yl)sulfamoyl)benzyl)-2-(2-(2-(2-((5-((4-(thieno[3,2-b]pyridin-7-yloxy)piperidin-1-yl)methyl)isoxazol-3-yl)oxy)ethoxy)ethoxy)ethoxy)acetamide] and `Cc1ccc(NS(=O)(=O)c2ccc(CNC(=O)COCCOCCOc3cc(CN4CCC(Oc5ccnc6ccsc56)CC4)on3)cc2)c2[nH]cc(C#N)c12` [Example 68, N-(4-(N-(3-cyano-4-methyl-1H-indol-7-yl)sulfamoyl)benzyl)-2-(2-(2-((5-((4-(thieno[3,2-b]pyridin-7-yloxy)piperidin-1-yl)methyl)isoxazol-3-yl)oxy)ethoxy)ethoxy)acetamide] fall in the same range of remaining binding at 1 µM: 25 to 50% for the first, 25 to 50% for the second.

Compared with `NC(=O)c1cccc(Nc2ncnc3ccsc23)c1` [Ref. example 20, 3-(thieno[3,2-d]pyrimidin-4-ylamino)benzamide], `c1cc(Nc2ncnc3ccsc23)ccn1` [Ref. example 21, N-(pyridin-4-yl)thieno[3,2-d]pyrimidin-4-amine] is lower in remaining binding at 1 µM: 50 to 75% for the first, < 25% for the second.

First: O=S(=O)(c1c(F)cccc1F)N1CCC(Oc2ncnc3ccsc23)CC1 [Ref. example 38, 4-((1-((2,6-difluorophenyl)sulfonyl)piperidin-4-yl)oxy)thieno[3,2-d]pyrimidine]
Second: Cc1ccccc1S(=O)(=O)N1CCC(Oc2ncnc3ccsc23)CC1 [Ref. example 47, 4-((1-(o-tolylsulfonyl)piperidin-4-yl)oxy)thieno[3,2-d]pyrimidine]
The remaining binding at 1 µM of the first is higher: 25 to 50% for the first, < 25% for the second.

Compared with `O=S(=O)(c1cccc(Oc2ccccc2)c1)N1CCC(Oc2ncnc3ccsc23)CC1` [Ref. example 64, 4-((1-((3-phenoxyphenyl)sulfonyl)piperidin-4-yl)oxy)thieno[3,2-d]pyrimidine], `COc1cccc(S(=O)(=O)N2CCC(Oc3ncnc4ccsc34)CC2)c1` [Ref. example 54, 4-((1-((3-methoxyphenyl)sulfonyl)piperidin-4-yl)oxy)thieno[3,2-d]pyrimidine] is higher in remaining binding at 1 µM: < 25% for the first, 25 to 50% for the second.

Going from `Cc1ncsc1-c1ccc(CNC(=O)[C@@H]2C[C@@H](O)CN2C(=O)[C@H](C(C)C)N2Cc3ccccc3C2=O)c(OCCOCCOc2cc(CN3CCC(Oc4ccnc5ccsc45)CC3)on2)c1` [Example 63, (2S,4R)-4-hydroxy-1-((S)-3-methyl-2-(1-oxoisoindolin-2-yl)butanoyl)-N-(4-(4-methylthiazol-5-yl)-2-(2-(2-((5-((4-(thieno[3,2-b]pyridin-7-yloxy)piperidin-1-yl)methyl)isoxazol-3-yl)oxy)ethoxy)ethoxy)benzyl)pyrrolidine-2-carboxamide] to `Cc1ncsc1-c1ccc(CNC(=O)[C@@H]2C[C@@H](O)CN2C(=O)[C@H](C(C)C)N2Cc3ccccc3C2=O)c(OCCOCCOCCOCCOc2cc(CN3CCC(Oc4ccnc5ccsc45)CC3)on2)c1` [Example 64, (2S,4R)-4-hydroxy-1-((S)-3-methyl-2-(1-oxoisoindolin-2-yl)butanoyl)-N-(4-(4-methylthiazol-5-yl)-2-(2-(2-(2-(2-((5-((4-(thieno[3,2-b]pyridin-7-yloxy)piperidin-1-yl)methyl)isoxazol-3-yl)oxy)ethoxy)ethoxy)ethoxy)ethoxy)benzyl)pyrrolidine-2-carboxamide], the remaining binding at 1 µM rises from < 25% to ≥ 75%.

Compared with `O=S(=O)(Cc1ccccc1)N1CCC(Oc2ncnc3ccsc23)CC1` [Ref. example 41, 4-((1-(benzylsulfonyl)piperidin-4-yl)oxy)thieno[3,2-d]pyrimidine], `O=S(=O)(CCc1ccccc1)N1CCC(Oc2ncnc3ccsc23)CC1` [Ref. example 63, 4-((1-(phenethylsulfonyl)piperidin-4-yl)oxy)thieno[3,2-d]pyrimidine] is lower in remaining binding at 1 µM: 25 to 50% for the first, < 25% for the second.

`Cc1noc(C)c1CN1CCC(Oc2ccnc3ccsc23)CC1` [Ref. example 78, 3,5-dimethyl-4-((4-(thieno[3,2-b]pyridin-7-yloxy)piperidin-1-yl)methyl)isoxazole] and `COc1ccc(S(=O)(=O)N2CCC(Oc3ncnc4ccsc34)CC2)cn1` [Ref. example 60, 4-((1-((6-methoxypyridin-3-yl)sulfonyl)piperidin-4-yl)oxy)thieno[3,2-d]pyrimidine] fall in the same range of remaining binding at 1 µM: 25 to 50% for the first, 25 to 50% for the second.

First: COc1cc(Nc2ncnc3ccsc23)ccn1 [Ref. example 23, N-(2-methoxypyridin-4-yl)thieno[3,2-d]pyrimidin-4-amine]
Second: c1ccc(OC2CCOC2)c(Nc2ncnc3ccsc23)c1 (centres unmarked) [Ref. example 19, N-(2-((tetrahydrofuran-3-yl)oxy)phenyl)thieno[3,2-d]pyrimidin-4-amine]
The remaining binding at 1 µM of the first is lower: 25 to 50% for the first, 50 to 75% for the second.

First: CN1CCC(Oc2ncnc3cc(-c4cnn(C)c4)sc23)CC1 [Ref. example 31, 6-(1-methyl-1H-pyrazol-4-yl)-4-((1-methylpiperidin-4-yl)oxy)thieno[3,2-d]pyrimidine]
Second: O=S(=O)(c1ccccc1OC(F)(F)F)N1CCC(Oc2ncnc3ccsc23)CC1 [Ref. example 50, 4-((1-((2-(trifluoromethoxy)phenyl)sulfonyl)piperidin-4-yl)oxy)thieno[3,2-d]pyrimidine]
The remaining binding at 1 µM of the first is higher: ≥ 75% for the first, 25 to 50% for the second.

For `Cc1ccc(NS(=O)(=O)c2ccc(CNC(=O)COCCOc3cc(CN4CCC(Oc5ccnc6ccsc56)CC4)on3)cc2)c2[nH]cc(C#N)c12` [Example 70, N-(4-(N-(3-cyano-4-methyl-1H-indol-7-yl)sulfamoyl)benzyl)-2-(2-((5-((4-(thieno[3,2-b]pyridin-7-yloxy)piperidin-1-yl)methyl)isoxazol-3-yl)oxy)ethoxy)acetamide], the remaining binding at 1 µM was < 25%.

Same assay, conditions: second symbol of cell; read-out: IRAK-M binding inhibition IC50 value

`C=CCOc1cc(CN2CCC(Oc3ccnc4ccsc34)CC2)n(C)n1` [Ref. example 69, 7-((1-((3-(allyloxy)-1-methyl-1H-pyrazol-5-yl)methyl)piperidin-4-yl)oxy)thieno[3,2-b]pyridine] and `C=CCOc1cc(CN2CCC(Oc3ccnc4ccsc34)CC2)on1` [Ref. example 3] fall in the same range of IC50: 100 to 300 nM for the first, 100 to 300 nM for the second.

First: C=CCOc1cc(C(C)N2CCC(Oc3ccnc4ccsc34)CC2)on1 (centres unmarked) [Ref. example 83, 3-(allyloxy)-5-(1-(4-(thieno[3,2-b]pyridin-7-yloxy)piperidin-1-yl)ethyl)isoxazole]
Second: C=CCOc1cc(CN2CCC(Oc3ccnc4cc(C#N)sc34)CC2)on1 [Ref. example 86, 7-((1-((3-(allyloxy)isoxazol-5-yl)methyl)piperidin-4-yl)oxy)thieno[3,2-b]pyridine-2-carbonitrile]
The IC50 of the first is lower: < 30 nM for the first, 100 to 300 nM for the second. The first is the more potent here.

Work on `O=C1CCC(N2C(=O)c3cccc(OCCOCCOCCOc4cc(CN5CCC(Oc6ccnc7ccsc67)CC5)on4)c3C2=O)C(=O)N1` (centres unmarked) [Example 65, 2-(2,6-dioxopiperidin-3-yl)-4-(2-(2-(2-((5-((4-(thieno[3,2-b]pyridin-7-yloxy)piperidin-1-yl)methyl)isoxazol-3-yl)oxy)ethoxy)ethoxy)ethoxy)isoindoline-1,3-dione] yielded an IC50 of 300 to 1000 nM.
